`CCOc1cc2c(cc1C=O)OC(C)C2` (stereo unspecified) yielded a melting point of 74 to 78 °C. On to `CC(=O)CCc1ccc(OC(C)C(=O)O)cc1` (stereo unspecified), for which the melting point lay in the range of 68 to 70 °C.

Compound `O=C(O)C1C2CC3CC(C2)CC1C3` (stereo unspecified) came in with a melting point of 121 to 123 °C. Under `NNC(=O)COc1ccc(OCc2ccccc2)cc1` stands 142 to 144 °C; under `CCC(O)c1ccc(O)cc1` (stereo unspecified), 81 to 83 °C; under `Cc1nnc(C(Cl)(Cl)Cl)o1`, 47 to 49 °C. For `CC(C)c1ccc(/C=C(/C(=O)O)c2cccs2)cc1` the value was 250 to 252 °C; for `N#Cc1ccc(F)cc1N=C=O`, 36 to 38 °C; for `Nc1cc(S(=O)(=O)NC2CC2)ccc1O`, 119 to 121 °C. Consider `Fc1cc(F)c2cccnc2c1`, for which the melting point is 76 to 78 °C.

The compound `COc1ccc(-c2ccc(CN)s2)cc1` yielded a melting point of 114 to 116 °C.

In turn, `CNS(=O)(=O)c1ccc(CN)cc1` yielded a melting point of 111 to 113 °C.

`NC(=O)c1ccc(C(=O)O)s1` showed a melting point of 317 to 319 °C.

On to `NC(=NOC(=O)CCCCl)c1cccs1`, for which the melting point lay in the range of 144 to 146 °C. `O=C(O)CCC(=O)c1ccc2ccccc2c1` gave a melting point of 172 to 174 °C.

The compound `CC(=O)NCCc1ccc(C(=O)CCl)s1` displayed a melting point of 124 to 126 °C. Under `CC(CC(=O)O)c1ccc(Br)cc1` (stereo unspecified) stands 101 to 103 °C; under `Cc1cccc(OCCNc2ccc(F)cc2N)c1`, 76 to 78 °C. For the compound `Cn1cc(COc2ccc(O)cc2)cn1`, the melting point is 186 to 188 °C. For `CNc1ccc(S(C)(=O)=O)cc1` the value was 126 to 128 °C; for `CC(C)(C)OC(=O)N1CC(=O)NC(=O)C1`, 129 to 131 °C. Under `Nc1cc(NC(=O)c2ccccc2I)ccc1F` stands 202 to 204 °C; under `O=C(O)C1CCN(C2=NS(=O)(=O)c3ccccc32)CC1`, 279 to 281 °C; under `CN(C)c1ncnc(Cl)c1CCl`, 64 to 66 °C. Take `COc1ccccc1NCCC(N)=O`: the melting point lay in the range of 94 to 96 °C. In turn, `Cc1cc([N+](=O)[O-])ccc1NC(=O)CCl` came in with a melting point of 118 to 120 °C. As for `Fc1cccc2c(CBr)csc12`, the melting point was 74 to 76 °C.

`O=S1(=O)Nc2cccc3cccc1c23` gave a melting point of 175 to 177 °C. `Cc1ccc2oc(-c3nnc(S)n3N)cc2c1` came in with a melting point of 228 to 230 °C. In turn, `O=C(Nc1ccc(Cl)cn1)Nc1ccccc1C(=O)O` displayed a melting point of 245 to 247 °C. For the compound `Nc1ncn(Cc2cccnc2)n1`, the melting point lay within 112 to 114 °C. Compound `O=C(O)c1cnoc1-c1ccco1` showed a melting point of 195 to 197 °C. Under `O=C(O)C=Cc1cn(-c2ccccc2)nc1-c1cccs1` stands 224 to 226 °C; under `CS(=O)(=O)c1ccc(F)c(C(=O)O)c1F`, 175 to 177 °C; under `O=C(O)CSc1nnc(NC2CCCCC2)s1`, 157 to 159 °C.

Consider `O=C(O)C1CCCCN1S(=O)(=O)c1ccc(Br)cc1` (stereo unspecified), for which the melting point was 133 to 135 °C. Under `CC(C)CC1CCC(=O)NC1=O` (stereo unspecified) stands 129 to 131 °C; under `COc1ccc(OC)c(-c2csc(N)n2)c1`, 113 to 115 °C.

`NC(=S)Cc1nc2ccccc2[nH]1` registered a melting point of 204 to 207 °C.

`Nc1cccc(NC(=O)CO)c1` registered a melting point of 150 to 152 °C. Turning to `Cc1ccnc(-c2cccc(N)c2)n1`, the melting point was 123 to 125 °C.

For `CS(=O)(=O)CCCOc1cccc2c1CCC2O` (stereo unspecified), the melting point is 77 to 79 °C. The compound `Cc1oc(C(=O)O)cc1COc1ccccc1` showed a melting point of 139 to 141 °C. In turn, `CC(Oc1ccc(O)cc1)C(N)=O` (stereo unspecified) displayed a melting point of 138 to 140 °C. Regarding `Nc1cncnc1-c1ccccc1`, the melting point was 115 to 117 °C. For `COc1ccc(NS(=O)(=O)c2ccc(N3CCCCC3)c(N)c2)cc1`, the melting point was in the range of 111 to 113 °C. Turning to `CNC(=O)C1Cc2ccccc2CN1` (stereo unspecified), the melting point is 97 to 99 °C. In the case of `NC(=O)C(N)Cc1ccccc1` (stereo unspecified), the melting point is 93 to 95 °C. As to `OC1(CNCc2ccccc2)CCc2ccccc21` (stereo unspecified), the melting point lay in the range of 54 to 56 °C. Take `Cc1[nH]n(-c2ccc(Cl)c(Cl)c2)c(=N)c1C`: the melting point was in the range of 156 to 158 °C. On to `Cc1cc(S(=O)(=O)Cl)c(Cl)cc1F`, for which the melting point is 44 to 46 °C. Under `CCOc1ccccc1C=NO` stands 64 to 66 °C; under `O=C1OC(O)C(Br)=C1Br` (stereo unspecified), 122 to 124 °C.

`Nc1nc(CN2CCN(Cc3ccccc3)CC2)cs1` displayed a melting point of 110 to 112 °C. For the compound `CS(=O)(=O)c1cccc(Cl)c1C(=O)O`, the melting point was 147 to 149 °C. Take `Nc1ccc(F)c(N2CCCC2=O)c1`: the melting point is 122 to 124 °C. The compound `Cc1[nH]c(-c2ncccn2)nc(=O)c1CC(=O)O` came in with a melting point of 194 to 196 °C. Take `O=[N+]([O-])c1cc(S(=O)(=O)Cl)c(Cl)cc1F`: the melting point fell in the range of 41 to 43 °C. On to `CC(=O)c1ccc(S(=O)(=O)C(F)F)cc1`, for which the melting point was 92 to 94 °C. `O=C(Nc1ccc2c(c1)OCCO2)OCC(F)(F)F` came in with a melting point of 103 to 105 °C. `CC(=O)Cn1cc(Br)cn1` had a melting point of 62 to 64 °C.

Compound `COC(=O)C(CO)NC(=O)C1CCCCC1` (stereo unspecified) registered a melting point of 109 to 111 °C. `Cc1cc(N)ccc1C(=O)OC(C)(C)C`: the melting point was 69 to 71 °C. Consider `CC(=O)OC(OC(C)=O)c1ccc(S(=O)(=O)Cl)cc1`, for which the melting point was 109 to 111 °C. For `Cc1cc(C)c2nc(N)sc2c1` the value was 135 to 137 °C. `COc1cccc(-c2cc(N)n(-c3ccccc3)n2)c1` gave a melting point of 112 to 114 °C. `O=C(O)C1Cc2ccccc2CN1S(=O)(=O)c1ccccc1` (stereo unspecified) returned a melting point of 138 to 140 °C. In turn, `NNC(=O)Nc1cccc(Cl)c1` came in with a melting point of 107 to 109 °C. For the compound `CN1CCCC(N(C)C(=O)c2ccc(N)cc2)C1` (stereo unspecified), the melting point lay in the range of 116 to 118 °C. Under `Oc1ccc2nccnc2c1` stands 225 to 227 °C; under `COc1cc(C=C2CC(C(C)(C)C)Cc3c2nc2ccccc2c3C(=O)O)cc(OC)c1OC` (stereo unspecified), 220 to 222 °C. For `C#CCNC(=O)Nc1ccc(Cl)cc1` the value was 211 to 213 °C.

As for `Cn1cc([N+](=O)[O-])cc1C(=O)O`, the melting point fell in the range of 199 to 201 °C. For `O=C(CCl)Nc1cccc(C(=O)O)c1` the value was 220 to 222 °C. For the compound `CC(C)(C)c1ccc2oc(N)nc2c1`, the melting point is 146 to 148 °C. The compound `CCCn1c(S)nc2cc(S(N)(=O)=O)ccc21` had a melting point of 190 to 194 °C.

`CC(=O)c1cnc2cc(C)nn2c1C` showed a melting point of 144 to 146 °C. `CN(C(=O)c1ccncc1)c1ccc(C#N)cc1`: the melting point is 105 to 107 °C. Take `CCNCC(O)c1ccc(C)cc1` (stereo unspecified): the melting point fell in the range of 88 to 90 °C. The compound `Cc1cc(C)c(-c2cc(N)[nH]n2)cc1C` displayed a melting point of 145 to 147 °C. `CC(C)c1nnc(S)n1C1CC1` registered a melting point of 146 to 148 °C. `CCc1c(C(=O)O)cnn1C` registered a melting point of 144 to 146 °C.

The compound `Nc1ccc(Oc2ccc(Br)cc2)cc1` returned a melting point of 58 to 60 °C. With `c1cc(-c2ccn[nH]2)ccn1`, the melting point was in the range of 154 to 156 °C. For the compound `O=C(O)C=Cc1ccccc1OCc1cccc(Br)c1`, the melting point lay in the range of 148 to 150 °C. `NS(=O)(=O)c1ccc(Br)c(C(=O)O)c1`: the melting point lay in the range of 231 to 233 °C. The compound `c1ccc2sc(C3CCCCN3)nc2c1` (stereo unspecified) displayed a melting point of 200 to 202 °C. As to `CCc1nnnn1-c1ccccc1N`, the melting point was 107 to 109 °C. For `NCc1noc(-c2cccs2)n1`, the melting point fell in the range of 146 to 148 °C. For the compound `O=S(=O)(Nc1ccccc1Br)N1CCOCC1`, the melting point was 81 to 83 °C.

Consider `CN1CCN(S(=O)(=O)c2cccc(C(=O)O)c2)CC1`, for which the melting point lay in the range of 230 to 232 °C. In turn, `Cc1c(N)cc(C(=O)NC(C)c2ccccc2)cc1F` (stereo unspecified) yielded a melting point of 96 to 98 °C. For `CCCN1CCCC1C(=O)O` (stereo unspecified), the melting point was 83 to 85 °C. In turn, `Cc1cc(/C=C/C(=O)O)c(C)n1-c1nccs1` returned a melting point of 160 to 162 °C. As for `O=C(O)c1cccc([N+](=O)[O-])c1N1CCOCC1`, the melting point is 196 to 198 °C. In turn, `Oc1ccc(-c2nnco2)cc1` came in with a melting point of 210 to 212 °C.

Compound `O=Cc1cn(-c2ccccc2)nc1-c1ccc(Cl)cc1` gave a melting point of 125 to 127 °C.

As for `N#CC1=C(C(=O)O)CCC1`, the melting point was 108 to 110 °C. As to `COC(=O)Nc1snc(C)c1C(=O)O`, the melting point was in the range of 215 to 217 °C. `O=C(O)Cc1cn(-c2ccccc2)nc1-c1ccc(F)cc1`: the melting point was in the range of 145 to 147 °C.

With `CCC(=O)C(N)=O`, the melting point fell in the range of 94 to 96 °C. For the compound `O=C1CCC(O)(c2ccccc2)CC1`, the melting point was in the range of 126 to 128 °C. The compound `COc1cc(OC)cc(Oc2ccc(C=O)cc2)c1` gave a melting point of 57 to 59 °C. For `COC(=O)C(O)c1cc(Cl)cc(Cl)c1` (stereo unspecified) the value was 80 to 82 °C; for `O=C1C=CC(=O)N1c1ccc2ccccc2c1`, 120 to 124 °C; for `O=C1CCOc2c1cc(Br)cc2[N+](=O)[O-]`, 104 to 106 °C. Compound `Fc1ccc(OCc2ccc3ccccc3n2)c(Br)c1` showed a melting point of 124 to 126 °C.

With `CCS(=O)(=O)Nc1ccc(N)cc1OC`, the melting point is 129 to 131 °C. `CCc1ccc2c(CC(=O)O)coc2c1` had a melting point of 82 to 84 °C.

`O=C(Cn1cnnn1)N1CCNCC1`: the melting point lay in the range of 143 to 145 °C. For `CCNC(=O)c1cccc(NC(=O)CCl)c1`, the melting point fell in the range of 173 to 175 °C.

In the case of `NC(=S)N1CCS(=O)(=O)CC1`, the melting point was 233 to 235 °C.

For the compound `CC1CNc2ccccc2NC1=O` (stereo unspecified), the melting point was 203 to 205 °C.

In turn, `COc1ccc(CN2CCN(C(=O)CCNC(=O)c3ccc(C(C)(C)C)cc3)CC2)cc1` yielded a melting point of 102 to 104 °C. Compound `N#Cc1ccc2c(n1)CCCC2` displayed a melting point of 69 to 71 °C. `CN(C)C(=O)c1cccnc1Cl`: the melting point fell in the range of 69 to 71 °C. `CS(=O)(=O)Nc1ccc(S(=O)(=O)Cl)cc1`: the melting point is 141 to 143 °C.

With `CC(=O)c1nc2ccc(C)cc2[nH]1`, the melting point is 156 to 158 °C. Compound `N#Cc1ccnc(Cl)c1[N+](=O)[O-]` returned a melting point of 74 to 76 °C. For the compound `O=C(Nc1cccs1)OCC(F)(F)F`, the melting point lay within 58 to 60 °C.

Compound `NC(=O)COc1ccc(N)cc1` displayed a melting point of 124 to 126 °C.

As usually defined, the melting point is the temperature, or range, at which the solid turns liquid.
